Assay results as given in PubChem BioAssay AID2060887 (Molecular Pharmacology Branch, DTP, NCI, 2025).
Several values for one entry are separate records, joined by “and”; a condition that tells them apart may be missing. Equal entries are not always repeated.

System: 782815-120-R-J1-PDC complex spheroid viability
Assay: Anticancer human tumor 782815-120-R-J1-PDC patient-derived colon adenocarcinoma cell line growth inhibition [RAS]
Conditions: for viability, T/C: stronger effect = lower value
Method in brief: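 Tumour cells grown as complex spheroids with HUVEC endothelial cells and mesenchymal stem cells, treated with RAS pathway inhibitor combinations. Each agent spans half-log steps from near clinical Cmax, or 10 microM where Cmax is unknown.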
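Also: spheroids exposed to compounds for 7 days before reading.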
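For viability, T/C in this document: 100% = DMSO vehicle control viability.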

Question: For `CCc1c2c(nc3ccc(O)cc13)-c1cc3c(c(=O)n1C2)COC(=O)[C@]3(O)CC` + CCn1c(-c2cccnc2C(C)OC)c2c3cc(ccc31)N1CCOC(CC(NC(=O)C(C(C)C)N(C)C(=O)C3(F)CCN(C(=O)C#CC(C)(C)N(C)C)CC3)C(=O)N3CCCC(N3)C(=O)OCC(C)(C)C2)C1, which IC50 (curve of first compound, second compound 0.000949 µM) is on record?
Answer: The IC50 was 3.67 nM.

Question: And the IC50 (curve of first compound, second compound 0.003 µM)?
Answer: Its IC50 is 3.95 nM.

Question: And the IC50 (curve of first compound, second compound 0.00949 µM)?
Answer: The IC50 was 3.98 nM.

Question: And the IC50 (curve of first compound, second compound 0.03 µM)?
Answer: Its IC50 is 2.91 nM.

Question: What about the IC50 (curve of first compound, second compound 0.0949 µM) of the same compound?
Answer: Its IC50 is 3.69 nM.

Question: And the IC50 (curve of first compound, second compound 0.3 µM)?
Answer: The IC50 was 3.26 nM.

Question: What about the viability, T/C (second compound 0.000949 µM, first compound 0.000949 µM) of the same compound?
Answer: The viability, T/C was 84%.

Question: And the viability, T/C (second compound 0.000949 µM, first compound 0.003 µM)?
Answer: The viability, T/C was 56.1%.

Question: And the viability, T/C (second compound 0.000949 µM, first compound 0.00949 µM)?
Answer: Its viability, T/C is 22.1%.

Question: What about the viability, T/C (second compound 0.000949 µM, first compound 0.03 µM) of the same compound?
Answer: The viability, T/C was 8.78%.

Question: What about the viability, T/C (second compound 0.000949 µM, first compound 0.0949 µM) of the same compound?
Answer: Its viability, T/C is 2.94%.

Question: And the viability, T/C (second compound 0.000949 µM, first compound 0.3 µM)?
Answer: Its viability, T/C is 1.62%.

Question: What about the viability, T/C (second compound 0.003 µM, first compound 0.000949 µM) of the same compound?
Answer: Its viability, T/C is 89.9%.

Question: What about the viability, T/C (second compound 0.003 µM, first compound 0.003 µM) of the same compound?
Answer: The viability, T/C was 59.1%.

Question: And the viability, T/C (second compound 0.003 µM, first compound 0.00949 µM)?
Answer: Its viability, T/C is 21.3%.

Question: What about the viability, T/C (second compound 0.003 µM, first compound 0.03 µM) of the same compound?
Answer: Its viability, T/C is 9.28%.

Question: What about the viability, T/C (second compound 0.003 µM, first compound 0.0949 µM) of the same compound?
Answer: The viability, T/C was 4.83%.

Question: And the viability, T/C (second compound 0.003 µM, first compound 0.3 µM)?
Answer: The viability, T/C was 1.63%.

Question: And the viability, T/C (second compound 0.00949 µM, first compound 0.000949 µM)?
Answer: The viability, T/C was 86.5%.

Question: And the viability, T/C (second compound 0.00949 µM, first compound 0.003 µM)?
Answer: The viability, T/C was 59.2%.

Question: And the viability, T/C (second compound 0.00949 µM, first compound 0.00949 µM)?
Answer: The viability, T/C was 22.6%.

Question: What about the viability, T/C (second compound 0.00949 µM, first compound 0.03 µM) of the same compound?
Answer: The viability, T/C was 11.7%.

Question: What about the viability, T/C (second compound 0.00949 µM, first compound 0.0949 µM) of the same compound?
Answer: The viability, T/C was 3.57%.

Question: And the viability, T/C (second compound 0.00949 µM, first compound 0.3 µM)?
Answer: The viability, T/C was 1.64%.

Question: And the viability, T/C (second compound 0.03 µM, first compound 0.000949 µM)?
Answer: The viability, T/C was 91.9%.

Question: What about the viability, T/C (second compound 0.03 µM, first compound 0.003 µM) of the same compound?
Answer: The viability, T/C was 49.3%.

Question: And the viability, T/C (second compound 0.03 µM, first compound 0.00949 µM)?
Answer: Its viability, T/C is 19%.

Question: And the viability, T/C (second compound 0.03 µM, first compound 0.03 µM)?
Answer: The viability, T/C was 10.1%.

Question: What about the viability, T/C (second compound 0.03 µM, first compound 0.0949 µM) of the same compound?
Answer: Its viability, T/C is 4.83%.

Question: What about the viability, T/C (second compound 0.03 µM, first compound 0.3 µM) of the same compound?
Answer: Its viability, T/C is 1.53%.

Question: What about the viability, T/C (second compound 0.0949 µM, first compound 0.000949 µM) of the same compound?
Answer: The viability, T/C was 82.5%.

Question: And the viability, T/C (second compound 0.0949 µM, first compound 0.003 µM)?
Answer: Its viability, T/C is 57%.

Question: What about the viability, T/C (second compound 0.0949 µM, first compound 0.00949 µM) of the same compound?
Answer: The viability, T/C was 18.8%.

Question: What about the viability, T/C (second compound 0.0949 µM, first compound 0.03 µM) of the same compound?
Answer: The viability, T/C was 8.68%.

Question: And the viability, T/C (second compound 0.0949 µM, first compound 0.0949 µM)?
Answer: The viability, T/C was 5.21%.

Question: What about the viability, T/C (second compound 0.0949 µM, first compound 0.3 µM) of the same compound?
Answer: Its viability, T/C is 1.73%.

Question: And the viability, T/C (second compound 0.3 µM, first compound 0.000949 µM)?
Answer: The viability, T/C was 86.1%.

Question: And the viability, T/C (second compound 0.3 µM, first compound 0.003 µM)?
Answer: The viability, T/C was 53%.

Question: What about the viability, T/C (second compound 0.3 µM, first compound 0.00949 µM) of the same compound?
Answer: The viability, T/C was 15.4%.

Question: And the viability, T/C (second compound 0.3 µM, first compound 0.03 µM)?
Answer: The viability, T/C was 8.17%.

Question: And the viability, T/C (second compound 0.3 µM, first compound 0.0949 µM)?
Answer: Its viability, T/C is 2.87%.

Question: What about the viability, T/C (second compound 0.3 µM, first compound 0.3 µM) of the same compound?
Answer: Its viability, T/C is 1.16%.

Question: With `CCC(CC)c1cc(NC2CCC(N)C2)n2nccc2n1` (stereo unspecified) + C#Cc1c(F)ccc2cc(O)cc(-c3ncc4c(N5CC6CCC(C5)N6)nc(OCC56CCCN5CC(F)C6)nc4c3F)c12 as the compound, how does the IC50 (curve of first compound, second compound 0.0316 µM) read?
Answer: Its IC50 is 2500 nM.

Question: What about the IC50 (curve of first compound, second compound 0.1 µM) of the same compound?
Answer: Its IC50 is 2630 nM.

Question: And the IC50 (curve of first compound, second compound 0.316 µM)?
Answer: Its IC50 is 2820 nM.

Question: What about the IC50 (curve of first compound, second compound 1 µM) of the same compound?
Answer: The IC50 was 2390 nM.

Question: And the IC50 (curve of first compound, second compound 3.16 µM)?
Answer: The IC50 was 2560 nM.

Question: And the IC50 (curve of first compound, second compound 10 µM)?
Answer: Its IC50 is 2360 nM.

Question: And the viability, T/C (second compound 0.0316 µM, first compound 0.0316 µM)?
Answer: Its viability, T/C is 93.3%.

Question: What about the viability, T/C (second compound 0.0316 µM, first compound 0.1 µM) of the same compound?
Answer: The viability, T/C was 90.7%.

Question: And the viability, T/C (second compound 0.0316 µM, first compound 0.316 µM)?
Answer: The viability, T/C was 99.4%.

Question: And the viability, T/C (second compound 0.0316 µM, first compound 1 µM)?
Answer: The viability, T/C was 100%.

Question: What about the viability, T/C (second compound 0.0316 µM, first compound 3.16 µM) of the same compound?
Answer: Its viability, T/C is 38.2%.

Question: What about the viability, T/C (second compound 0.0316 µM, first compound 10 µM) of the same compound?
Answer: The viability, T/C was 1.67%.

Question: And the viability, T/C (second compound 0.1 µM, first compound 0.0316 µM)?
Answer: Its viability, T/C is 99.2%.

Question: What about the viability, T/C (second compound 0.1 µM, first compound 0.1 µM) of the same compound?
Answer: The viability, T/C was 103%.

Question: And the viability, T/C (second compound 0.1 µM, first compound 0.316 µM)?
Answer: Its viability, T/C is 96.9%.

Question: What about the viability, T/C (second compound 0.1 µM, first compound 1 µM) of the same compound?
Answer: The viability, T/C was 104%.

Question: And the viability, T/C (second compound 0.1 µM, first compound 3.16 µM)?
Answer: Its viability, T/C is 40.3%.

Question: And the viability, T/C (second compound 0.1 µM, first compound 10 µM)?
Answer: Its viability, T/C is 1.65%.

Question: And the viability, T/C (second compound 0.316 µM, first compound 0.0316 µM)?
Answer: The viability, T/C was 105%.

Question: And the viability, T/C (second compound 0.316 µM, first compound 0.1 µM)?
Answer: The viability, T/C was 109%.

Question: What about the viability, T/C (second compound 0.316 µM, first compound 0.316 µM) of the same compound?
Answer: The viability, T/C was 103%.

Question: What about the viability, T/C (second compound 0.316 µM, first compound 1 µM) of the same compound?
Answer: The viability, T/C was 111%.

Question: And the viability, T/C (second compound 0.316 µM, first compound 3.16 µM)?
Answer: Its viability, T/C is 43.7%.

Question: And the viability, T/C (second compound 0.316 µM, first compound 10 µM)?
Answer: The viability, T/C was 2.09%.

Question: And the viability, T/C (second compound 1 µM, first compound 0.0316 µM)?
Answer: Its viability, T/C is 96.3%.

Question: What about the viability, T/C (second compound 1 µM, first compound 0.1 µM) of the same compound?
Answer: The viability, T/C was 90.1%.

Question: And the viability, T/C (second compound 1 µM, first compound 0.316 µM)?
Answer: The viability, T/C was 101%.

Question: And the viability, T/C (second compound 1 µM, first compound 1 µM)?
Answer: The viability, T/C was 105%.

Question: And the viability, T/C (second compound 1 µM, first compound 3.16 µM)?
Answer: Its viability, T/C is 34.4%.

Question: And the viability, T/C (second compound 1 µM, first compound 10 µM)?
Answer: Its viability, T/C is 1.52%.

Question: And the viability, T/C (second compound 3.16 µM, first compound 0.0316 µM)?
Answer: The viability, T/C was 104%.

Question: What about the viability, T/C (second compound 3.16 µM, first compound 0.1 µM) of the same compound?
Answer: The viability, T/C was 95%.

Question: What about the viability, T/C (second compound 3.16 µM, first compound 0.316 µM) of the same compound?
Answer: Its viability, T/C is 91.2%.

Question: What about the viability, T/C (second compound 3.16 µM, first compound 1 µM) of the same compound?
Answer: The viability, T/C was 99%.

Question: What about the viability, T/C (second compound 3.16 µM, first compound 3.16 µM) of the same compound?
Answer: The viability, T/C was 39.3%.

Question: And the viability, T/C (second compound 3.16 µM, first compound 10 µM)?
Answer: Its viability, T/C is 1.84%.

Question: And the viability, T/C (second compound 10 µM, first compound 0.0316 µM)?
Answer: The viability, T/C was 106%.

Question: What about the viability, T/C (second compound 10 µM, first compound 0.1 µM) of the same compound?
Answer: Its viability, T/C is 90.6%.

Question: And the viability, T/C (second compound 10 µM, first compound 0.316 µM)?
Answer: Its viability, T/C is 92.2%.

Question: And the viability, T/C (second compound 10 µM, first compound 1 µM)?
Answer: The viability, T/C was 103%.

Question: And the viability, T/C (second compound 10 µM, first compound 3.16 µM)?
Answer: The viability, T/C was 33.7%.

Question: And the viability, T/C (second compound 10 µM, first compound 10 µM)?
Answer: The viability, T/C was 1.27%.

Question: For `C=CC(=O)Nc1cc(Nc2nccc(-c3cn(C)c4ccccc34)n2)c(OC)cc1N(C)CCN(C)C`, which viability, T/C (compound 0.00316 µM) is on record?
Answer: Its viability, T/C is 93.8% and 93.6% (2×) and 98%.

Question: What about the viability, T/C (compound 0.01 µM) of the same compound?
Answer: Its viability, T/C is 99.9% [middle of 4 runs].

Question: And the viability, T/C (compound 0.0316 µM)?
Answer: Its viability, T/C is 96.3% [middle of 4 runs].

Question: What about the viability, T/C (compound 0.1 µM) of the same compound?
Answer: The viability, T/C was 94.3% [middle of 4 runs].

Question: And the viability, T/C (compound 0.316 µM)?
Answer: The viability, T/C was 94.1% [middle of 4 runs].

Question: And the viability, T/C (compound 1 µM)?
Answer: Its viability, T/C is 91.1% [middle of 4 runs].

Question: And the IC50 (curve of compound)?
Answer: The IC50 was > 1000 nM.
